Assay results reported in US20100317850A1 (priority 2008, published 2010).

System: Aβ42 production
Assay: Quantification of Aβ peptide in culture of neurons from rat fetus brain (Aβ ELISA)
Format: cell-based
Details: Neuron, 72 h; rat primary neuronal culture (cerebral cortex, embryonic day 18 Wistar rats); medium collected three days after addition of the compound; Aβx-42 ELISA; read-out: Aβ42 production reducing effect IC50
Description: Quantification of Aβ Peptide in Culture of Neurons from Rat Fetus Brain
(1) Rat Primary Neuronal Culture
Primary neuronal cultures were prepared from the cerebral cortex of embryonic day 18 Wistar rats (Charles River Japan, Yokohama, Japan). Specifically, the embryos were aseptically removed from pregnant rats under ether anesthesia. The brain was isolated from the embryo and immersed in an ice-cold L-15 medium (such as Invitrogen Corp. Cat #11415-064, Carlsbad, Calif., USA, or SIGMA L1518). The cerebral cortex was collected from the isolated brain under a stereoscopic microscope. The cerebral cortex fragments collected were enzymatically treated in an enzyme solution containing 0.25% trypsin (Invitrogen Corp. Cat #15050-065, Carlsbad, Calif., USA) and 0.01% DNase (Sigma D5025, St. Louis, Mo., USA) at 37° C. for 30 minutes to disperse the cells. Here, the enzymatic reaction was stopped by adding inactivated horse serum to the solution. The enzymatically treated solution was centrifuged at 1,500 rpm for five minutes to remove the supernatant. 5 to 10 mL of a medium was added to the resulting cell mass. Neurobasal medium (Invitrogen Corp. Cat #21103-049, Carlsbad, Calif., USA) supplemented with 2% B27 supplement (Invitrogen Corp. Cat #17504-044, Carlsbad, Calif., USA), 25 μM 2-mercaptoethanol (2-ME, WAKO Cat #139-06861, Osaka, Japan), 0.5 mM L-glutamine (Invitrogen Corp. Cat #25030-081, Carlsbad, Calif., USA), and Antibiotics-Antimycotics (Invitrogen Corp. Cat #15240-062, Carlsbad, Calif., USA) was used as the medium (Neurobasal/B27/2-ME). However, the above Neurobasal medium not supplemented with 2-ME (Neurobasal/B27) was used for the assay. The cells were redispersed by mild pipetting of the cell mass to which the medium was added. The cell dispersion was filtered through a 40-μm nylon mesh (Cell Strainer, Cat #35-2340, Becton Dickinson Labware, Franklin Lakes, N.J., USA) to remove the remaining cell mass, and thus a neuronal cell suspension was obtained. The neuronal cell suspension was diluted with the medium and then plated in a volume of 100 μL/well at an initial cell density of 5×10^5 cells/cm^2 in a 96-well polystyrene culture plate pre-coated with poly-L or D-lysine (Falcon Cat #35-3075, Becton Dickinson Labware, Franklin Lakes, N.J., USA coated with poly-L-lysine using the method shown below, or BIOCOAT™ cell environments Poly-D-lysine cell ware 96-well plate, Cat #35-6461, Becton Dickinson Labware, Franklin Lakes, N.J., USA). Poly-L-lysine coating was carried out as follows. 100 μg/mL of a poly-L-lysine (SIGMA P2636, St. Louis, Mo., USA) solution was aseptically prepared with a 0.15 M borate buffer (pH 8.5). […] of the solution was added to the 96-well polystyrene culture plate and incubated at room temperature for one or more hours or at 4° C. overnight or longer. Thereafter, the coated 96-well polystyrene culture plate was washed with sterile water four or more times, and then dried or rinsed with, for example, sterile PBS or medium, and used for cell plating. The plated cells were cultured in the culture plate at 37° C. in 5% CO2-95% air for one day. Then, the total amount of the medium was replaced with a fresh Neurobasal™/B27/2-ME medium, and then the cells were cultured for further three days.
The drug was added to the culture plate on Day 4 of culture as follows. The total amount of the medium was removed from the wells, and 180 μL/well of Neurobasal medium not containing 2-ME and containing 2% B-27 (Neurobasal/B27) was added thereto. A solution of the test compound in dimethyl sulfoxide (hereinafter abbreviated as DMSO) was diluted with Neurobasal/B27 to a concentration 10-fold higher than the final concentration. 20 μL/well of the dilution was added to and sufficiently mixed with the medium. The final DMSO concentration was 1% or less. Only DMSO was added to the control group.
The cells were cultured for three days after addition of the compound, and the total amount of the medium was collected. […]

| Structure (SMILES) | IC50 [nM] |
| --- | --- |
| NC1=N[C@@]2(c3cc(NC(=O)c4ccc(OC(F)F)cn4)ccc3F)CCOC[C@H]2CS1 (relative stereo) [Example 81, N-[3-((4aS*,8aS*)-2-amino-4a,5,7,8-tetrahydro-4H-6-oxa-3-thia-1-azanaphthalen-8a-yl)-4-fluorophenyl]-5-difluoromethoxypyridine-2-carboxamide] | 14 |
| CCO[C@H]1C[C@H]2CSC(N)=N[C@@]2(c2cc(NC(=O)c3ccc(C#N)cn3)ccc2F)C1 (relative stereo) [Example 89, (+)-N-[3-((4aR*,6S*,7aS*)-2-amino-6-ethoxy-4a,5,6,7-tetrahydro-4H-cyclopenta[d][1,3]thiazin-7a-yl)-4-fluorophenyl]-5-cyanopyridine-2-carboxamide] | 3.2 |
| CCO[C@@H]1C[C@H]2CSC(N)=N[C@@]2(c2cc(NC(=O)c3ccc(C#N)cn3)ccc2F)C1 (relative stereo) [Example 90, (+)-N-[3-((4aR*,6R*,7aS*)-2-amino-6-ethoxy-4a,5,6,7-tetrahydro-4H-cyclopenta[d][1,3]thiazin-7a-yl)-4-fluorophenyl]-5-cyanopyridine-2-carboxamide] | 2.5 |
| N#Cc1ccc(C(=O)Nc2ccc(F)c([C@]34C[C@H](F)C[C@H]3CSC(N)=N4)c2)nc1 (relative stereo) [Example 91, (+)-N-[3-((4aR*,6R*,7aS*)-2-amino-6-fluoro-4a,5,6,7-tetrahydro-4H-cyclopenta[d][1,3]thiazin-7a-yl)-4-fluorophenyl]-5-cyanopyridine-2-carboxamide] | 1.4 |
| CO[C@H]1C[C@H]2CSC(N)=N[C@@]2(c2cc(NC(=O)c3cnc(C(F)F)cn3)ccc2F)C1 (relative stereo) [Example 92, (+)-N-[3-((4aR*,6S*,7aS*)-2-amino-6-methoxy-4a,5,6,7-tetrahydro-4H-cyclopenta[d][1,3]thiazin-7a-yl)-4-fluorophenyl]-5-difluoromethylpyrazine-2-carboxamide] | 5 |
| CO[C@@H]1C[C@H]2CSC(N)=N[C@@]2(c2cc(NC(=O)c3cnc(C(F)F)cn3)ccc2F)C1 (relative stereo) [Example 93, (+)-N-[3-((4aR*,6R*,7aS*)-2-amino-6-methoxy-4a,5,6,7-tetrahydro-4H-cyclopenta[d][1,3]thiazin-7a-yl)-4-fluorophenyl]-5-difluoromethylpyrazine-2-carboxamide] | 3 |
| N#Cc1ccc(C(=O)Nc2ccc(F)c([C@]34CC(F)(F)C[C@H]3CSC(N)=N4)c2)nc1 (relative stereo) [Example 94, (+)-N-[3-((4aR*,7aS*)-2-amino-6,6-difluoro-4a,5,6,7-tetrahydro-4H-cyclopenta[d][1,3]thiazin-7a-yl)-4-fluorophenyl]-5-cyanopyridine-2-carboxamide] | 2 |
| CO[C@@H]1C[C@H]2CSC(N)=N[C@@]2(c2cc(NC(=O)c3cnc(OC(F)F)cn3)ccc2F)C1 (relative stereo) [Example 95] | 1 |
| CO[C@@H]1C[C@H]2CSC(N)=N[C@@]2(c2cc(NC(=O)c3cnc(OCF)cn3)ccc2F)C1 (relative stereo) [Example 96, (+)-N-[3-((4aR*,6R*,7aS*)-2-amino-6-methoxy-4a,5,6,7-tetrahydro-4H-cyclopenta[d][1,3]thiazin-7a-yl)-4-fluorophenyl]-5-fluoromethoxypyrazine-2-carboxamide] | 1 |
| NC1=N[C@@]2(c3cc(NC(=O)c4cnc(OC(F)F)cn4)ccc3F)C[C@H](F)C[C@H]2CS1 (relative stereo) [Example 98, (+)-N-[3-((4aR*,6R*,7aS*)-2-amino-6-fluoro-4a,5,6,7-tetrahydro-4H-cyclopenta[d][1,3]thiazin-7a-yl)-4-fluorophenyl]-5-difluoromethoxypyrazine-2-carboxamide] | 1 |
| CO[C@@H]1C[C@H]2CSC(N)=N[C@@]2(c2cc(NC(=O)c3ccc(Cl)cn3)ccc2F)C1 (relative stereo) [Example 99, (+)-N-[3-((4aR*,6R*,7aS*)-2-amino-6-methoxy-4a,5,6,7-tetrahydro-4H-cyclopenta[d][1,3]thiazin-7a-yl)-4-fluorophenyl]-5-chloropyridine-2-carboxamide] | 1 |
| CO[C@@H]1C[C@H]2CSC(N)=N[C@@]2(c2cc(NC(=O)c3ccc(OC(F)F)cn3)ccc2F)C1 (relative stereo) [Example 100, (+)-N-[3-((4aR*,6R*,7aS*)-2-amino-6-methoxy-4a,5,6,7-tetrahydro-4H-cyclopenta[d][1,3]thiazin-7a-yl)-4-fluorophenyl]-5-difluoromethoxypyridine-2-carb oxamide] | 2 |
| CCCCO[C@@H]1C[C@H]2CSC(N)=N[C@@]2(c2cc(NC(=O)c3ccc(C#N)cn3)ccc2F)C1 (relative stereo) [Example 108, (+)-N-[3-((4aR*,6R*,7aS*)-2-amino-6-butoxy-4a,5,6,7-tetrahydro-4H-cyclopenta[d][1,3]thiazin-7a-yl)-4-fluorophenyl]-5-cyanopyridine-2-carboxamide] | 1 |
| CCCCO[C@H]1C[C@H]2CSC(N)=N[C@@]2(c2cc(NC(=O)c3ccc(C#N)cn3)ccc2F)C1 (relative stereo) [Example 109, (+)-N-[3-((4aR*,6S*,7aS*)-2-amino-6-butoxy-4a,5,6,7-tetrahydro-4H-cyclopenta[d][1,3]thiazin-7a-yl)-4-fluorophenyl]-5-cyanopyridine-2-carboxamide] | 1.8 |
| N#Cc1ccc(C(=O)Nc2ccc(F)c([C@]34C[C@@H](F)C[C@H]3CSC(N)=N4)c2)nc1 (relative stereo) [Example 110, (+)-N-[3-((4aR*,6S*,7aS*)-2-amino-6-fluoro-4a,5,6,7-tetrahydro-4H-cyclopenta[d][1,3]thiazin-7a-yl)-4-fluorophenyl]-5-cyanopyridine-2-carboxamide] | 5 |
| N#Cc1ccc(C(=O)Nc2ccc(F)c([C@]34CCO[C@H](CF)[C@H]3CSC(N)=N4)c2)nc1 (relative stereo) [Example 143, N-[3-((4aS*,5S*,8aS*)-2-amino-5-fluoromethyl-4a,5,7,8-tetrahydro-4H-6-oxa-3-thia-1-azanaphthalen-8a-yl)-4-fluorophenyl]-5-cyanopyridine-2-carboxamide] | 16 |
| NC1=N[C@@]2(c3cc(NC(=O)c4cnc(OCF)cn4)ccc3F)CCO[C@H](CF)[C@H]2CS1 (relative stereo) [Example 144, N-[3-((4aS*,5S*,8aS*)-2-amino-5-fluoromethyl-4a,5,7,8-tetrahydro-4H-6-oxa-3-thia-1-azanaphthalen-8a-yl)-4-fluorophenyl]-5-fluoromethoxypyrazine-2-carboxamide] | 11 |
| NC1=N[C@@]2(c3cc(NC(=O)c4cnc(OC(F)F)cn4)ccc3F)CCO[C@H](CF)[C@H]2CS1 (relative stereo) [Example 145, N-[3-((4aS*,5S*,8aS*)-2-amino-5-fluoromethyl-4a,5,7,8-tetrahydro-4H-6-oxa-3-thia-1-azanaphthalen-8a-yl)-4-fluorophenyl]-5-difluoromethoxypyrazine-2-carboxamide] | 3 |
| NC1=N[C@@]2(c3cc(NC(=O)c4cnc(C(F)F)cn4)ccc3F)CCO[C@H](CF)[C@H]2CS1 (relative stereo) [Example 146, N-[3-((4aS*,5S*,8aS*)-2-amino-5-fluoromethyl-4a,5,7,8-tetrahydro-4H-6-oxa-3-thia-1-azanaphthalen-8a-yl)-4-fluorophenyl]-5-difluoromethylpyrazine-2-carboxamide] | 32 |
